This is an account of results in patent US9102622B2 (University of Connecticut, priority 2006, dated 2015).

The test deals with fatty acid amide hydrolase (FAAH) (Rattus norvegicus (Rat), UniProt P97612). In words: FAAH enzyme assay: inhibition of anandamide (AEA) hydrolysis, arachidonic acid quantified by HPLC. To be noted: for IC50 / Ki: eight-point assay; for IC50: anandamide hydrolysis by FAAH, read-out: IC50; for Ki: calculated with Prizm software, read-out: Ki. Format: biochemical. The method, then:
The resulting supernatant is injected onto the HPLC.

The mark [1] stands for this setting: one-point assay, inhibitor 100 μM, partially purified rat brain FAAH, 15 min, read-out: % Inhibition (Concentration).
Where [2] appears, read: read-out: % Inhibition (Concentration).

Read-outs that look alike come from different tables or passages of the source.

Chain of fatty acid amide hydrolase (FAAH) (P97612 whole entry): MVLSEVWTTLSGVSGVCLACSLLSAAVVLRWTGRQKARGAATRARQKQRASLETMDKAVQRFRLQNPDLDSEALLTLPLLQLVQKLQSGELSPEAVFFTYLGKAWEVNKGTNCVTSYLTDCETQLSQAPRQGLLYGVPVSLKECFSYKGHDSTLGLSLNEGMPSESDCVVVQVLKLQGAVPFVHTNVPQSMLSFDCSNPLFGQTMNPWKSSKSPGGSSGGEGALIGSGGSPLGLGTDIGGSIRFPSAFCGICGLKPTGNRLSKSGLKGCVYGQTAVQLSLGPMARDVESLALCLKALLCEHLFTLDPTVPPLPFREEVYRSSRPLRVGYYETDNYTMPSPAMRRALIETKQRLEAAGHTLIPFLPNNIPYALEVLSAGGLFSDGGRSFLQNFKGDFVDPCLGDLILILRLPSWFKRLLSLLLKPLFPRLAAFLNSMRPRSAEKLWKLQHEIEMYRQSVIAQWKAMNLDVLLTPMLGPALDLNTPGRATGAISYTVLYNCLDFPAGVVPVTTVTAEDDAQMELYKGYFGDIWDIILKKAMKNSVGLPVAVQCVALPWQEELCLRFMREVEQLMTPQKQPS

Turning to `Cc1nnc(C(=O)CCCCCCOc2ccc(OCc3ccccc3)cc2)o1` [Compound 65.2, 7-(4-Benzyloxy-phenoxy)-1-(5-methyl-1,3,4-oxadiazol-2-yl)-heptan-1-one], the IC50 (as a rule, the concentration at which inhibition is half-maximal) is 0.12 µM and the Ki (commonly the equilibrium dissociation constant of an inhibitor or competing ligand from its target) is 0.008 µM. The inhibition at 100 µM under setting [1] was determined as 96%.

Consider `Cc1nnc(C(=O)CCCCCCOc2ccc(O)cc2)o1` [Compound 66, 7-(4-Hydroxy-phenoxy)-1-(5-methyl-1,3,4-oxadiazol-2-yl)-heptan-1-one], for which the IC50 was determined as 0.1 µM and the inhibition constant Ki was 0.006 µM. The inhibition at 100 µM under setting [2] stood at 97%.

For the molecule `O=C(CCCCCCOc1ccccc1)c1nnc(COCc2ccccc2)o1` [Compound 73.1, 7-(Phenoxy)-1-(5-benzyloxymethyl-1,3,4-oxadiazol-2-yl)-heptan-1-one], the IC50 was found to be 0.025 µM and the Ki is 0.002 µM. For the same molecule, the inhibition at 100 µM under setting [1] came out at 94%.

As to `O=C(CCCCCCOc1ccc(OCc2ccccc2)cc1)c1nnc(COCc2ccccc2)o1` [Compound 73.2, 7-(4-Benzyloxy-phenoxy)-1-(5-benzyloxymethyl-1,3,4-oxadiazol-2-yl)-heptan-1-one], the IC50 is 0.021 µM and the Ki is 0.002 µM. Also, under setting [2], the inhibition at 100 µM turned out to be 93%.

For `O=C(CCCCCCOc1ccccc1)c1nnc(CO)o1` [Compound 74.1, 1-(5-hydroxymethyl-1,3,4-oxadiazol-2-yl)-7-phenoxy-heptan-1-one], the IC50 worked out at 0.015 µM and the Ki was 0.001 µM. Moreover, under setting [1], the inhibition at 100 µM came out at 96%.

Consider `O=C(CCCCCCOc1ccc(O)cc1)c1nnc(COCc2ccccc2)o1` [Compound 74.2, 1-(5-benzyloxymethyl-1,3,4-oxadiazol-2-yl)-7-(4-hydroxy-phenoxy)-heptan-1-one], for which the half-maximal inhibitory concentration (IC50) came out at 0.039 µM and the Ki is 0.003 µM. Moreover, under setting [1], the inhibition at 100 µM came to 92%.

Consider `COc1cccc(C(=O)c2nnc(C)o2)c1` [Compound 81, 1-(3-Methoxy-phenyl)-1-(5-methyl-1,3,4-oxadiazol-2-yl)-ketone], for which, under setting [1], the inhibition at 100 µM was determined as 24%.

As for `O=C1c2ccccc2S(=O)(=O)N1Cc1ccccc1` [Compound 83.1, N-(Phenylmethyl)saccharin], the inhibition at 100 µM under setting [1] came out at 42%.

In the case of `O=C1c2ccccc2S(=O)(=O)N1CCCCOc1ccccc1` [Compound 83.2, N-(4-Phenoxy-butyl)saccharin], the IC50 was 11.6 µM. Besides, the inhibition at 100 µM under setting [1] came to 91%.

As to `O=C1c2ccccc2S(=O)(=O)N1CCCCOc1ccc(OCc2ccccc2)cc1` [Compound 83.3, N-[4-(4-Benzyloxy-phenoxy)-butyl]saccharin], the IC50 stood at 10.9 µM. For the same molecule, the inhibition at 100 µM under setting [1] came out at 87%.

`O=C1c2ccccc2S(=O)(=O)N1CCCCOc1ccc(O)cc1` [Compound 84, N-[4-(4-Hydroxy-phenoxy)-butyl]saccharin]: the concentration for half-maximal inhibition (IC50) was 9.1 µM and the inhibitory constant (Ki) is 0.9 µM. For the same molecule, the inhibition at 100 µM under setting [1] was found to be 92%.

As to `CCOC(=O)C(=O)CCCCOc1cccc(OCc2ccccc2)c1` [Compound 87.1], the inhibition at 100 µM under setting [1] stood at 100%.

Consider `CCOC(=O)C(=O)CCCCCOc1ccccc1` [Compound 87.4, 2-Oxo-7-phenoxy-heptanoic acid ethyl ester], for which the IC50 amounted to 0.29 µM and the Ki was 0.09 µM. The inhibition at 100 µM under setting [1] amounted to 100%.

In the case of `CC(=O)C(F)(F)CCCCOc1cccc(OCc2ccccc2)c1` [Compound 89.1], the IC50 amounted to 0.27 µM and the Ki was 0.08 µM. Besides, the inhibition at 0.1 µM (one-point assay, inhibitor 100 nM, partially purified rat brain FAAH, 15 min, read-out: % Inhibition (Concentration)) was determined as 79%.

For the molecule `CC(=O)C(F)(F)CCCCOc1ccccc1` [Compound 89.2], the inhibition at 100 µM under setting [1] worked out at 98%.

`CC(=O)C(F)(F)CCCCCOc1ccccc1` [Compound 89.4, 3,3-difluoro-8-phenoxy-2-octanone]: the IC50 was 0.23 µM and the inhibition constant (Ki) was 0.07 µM. Also, the inhibition at 100 µM under setting [1] came out at 87%.

As to `Cc1nnc(C(=O)C(F)(F)CCCCCCOc2ccccc2)o1` [Compound 89.7, 2,2-Difluoro-8-phenoxy-1-(5-methyl-1,3,4-oxadiazol-2-yl)-octan-1-one], the IC50 stood at 0.031 µM and the Ki is 0.009 µM.
